Assay results as given in publication PMC7611208 (Clinical cancer research : an official journal of the …, 2019).

Biological target: T1, UCHL1 (Homo sapiens, UniProt P09936)
T1 sequence (P09936 1-220): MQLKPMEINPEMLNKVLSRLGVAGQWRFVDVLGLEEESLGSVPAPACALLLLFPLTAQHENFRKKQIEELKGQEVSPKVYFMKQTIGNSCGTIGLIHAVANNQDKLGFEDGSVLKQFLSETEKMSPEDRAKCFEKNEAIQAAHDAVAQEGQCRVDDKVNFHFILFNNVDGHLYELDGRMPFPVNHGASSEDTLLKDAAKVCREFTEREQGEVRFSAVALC
Assay: in vitro DUB IC50 assay
Assay type: biochemical

IC50: 230 nM
SMILES: N#CN1CC[C@H](C(=O)Nc2ncc(N3CCOCC3)s2)C1 [6RK73]
